Target: T1, Human Recombinant Matriptase 2 (Homo sapiens, UniProt Q8IU80)
T1 construct: purchased Enzo Life Sciences (an in-house preparation was also used) ALX-201-752-1
T1 sequence (Q8IU80 1-811): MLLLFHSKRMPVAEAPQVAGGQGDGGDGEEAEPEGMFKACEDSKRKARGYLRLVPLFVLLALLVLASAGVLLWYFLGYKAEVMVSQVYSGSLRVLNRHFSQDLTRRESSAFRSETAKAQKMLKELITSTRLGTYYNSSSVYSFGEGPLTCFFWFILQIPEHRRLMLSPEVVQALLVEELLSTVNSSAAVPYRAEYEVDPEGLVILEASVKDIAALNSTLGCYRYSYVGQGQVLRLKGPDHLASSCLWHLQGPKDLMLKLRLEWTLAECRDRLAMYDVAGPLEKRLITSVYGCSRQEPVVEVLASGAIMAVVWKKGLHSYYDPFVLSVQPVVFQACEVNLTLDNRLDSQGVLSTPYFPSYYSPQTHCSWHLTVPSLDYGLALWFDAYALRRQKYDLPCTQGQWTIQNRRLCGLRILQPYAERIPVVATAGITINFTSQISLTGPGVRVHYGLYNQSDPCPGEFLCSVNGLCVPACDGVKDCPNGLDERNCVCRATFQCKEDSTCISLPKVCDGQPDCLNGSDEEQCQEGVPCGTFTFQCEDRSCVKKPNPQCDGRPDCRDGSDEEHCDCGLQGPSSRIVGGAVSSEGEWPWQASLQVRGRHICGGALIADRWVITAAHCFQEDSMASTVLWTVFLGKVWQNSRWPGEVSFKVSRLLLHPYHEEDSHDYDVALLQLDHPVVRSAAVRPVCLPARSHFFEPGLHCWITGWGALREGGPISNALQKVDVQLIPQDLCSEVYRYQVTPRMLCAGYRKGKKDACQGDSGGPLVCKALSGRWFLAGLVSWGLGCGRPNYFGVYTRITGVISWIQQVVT
Experiment: Matriptase 2 fluorescence based inhibition assay, Method A (100 mM TRIS pH 9, 1 mg/mL BSA)
Format: biochemical
Details: 1 uM; Assay Used A; read-out: Mar-2 % inhibition at 1 uM
In short: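 At 25° C in 100 mM TRIS pH 9 with 1 mg/mL BSA and 1% DMSO, compounds were preincubated 30 min with 7 nM commercial or 15 nM in-house protein before adding 100 μM Boc-Gln-Ala-Arg-7-amido-4-methyl coumarin. Fluorescence at 360/480 nm after 60 min; single points at 1 and 10 μM, IC50 by variable-slope nonlinear regression.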

| Structure (SMILES) | inhibition at 1 µM [%] |
| --- | --- |
| N=C(N)c1ccc2cc(C(=O)N[C@H](CO)c3ccccc3)n(Cc3ccc(C(N)=O)cc3)c2c1 [Compound I-86] | 0 to 25 |
| N=C(N)c1ccc2cc(C(=O)Nc3cccc(C(F)(F)F)c3)n(Cc3ccc(C(N)=O)cc3)c2c1 [Compound I-60] | 0 to 25 |
| N=C(N)c1ccc2cc(C(=O)NC3CCC(F)(F)CC3)n(CCS(=O)(=O)c3ccccc3)c2c1 [Compound I-48] | 25 to 50 |
| N=C(N)c1ccc2cc(C(=O)Nc3cccc(-c4cnco4)c3)n(Cc3ccc(C(N)=O)cc3)c2c1 [Compound I-163] | 0 to 25 |
| COC(=O)NC(=N)c1ccc2cc(C(=O)Nc3ccc(N4CCCC4)cc3)n(Cc3ccc(C(N)=O)cc3)c2c1 [Compound I-118, Methyl ((1-(4-carbamoylbenzyl)-2-((4-(pyrrolidin-1-yl)phenyl)carbamoyl)-1H-indol-6-yl)(imino)methyl)carbamate] | 0 to 25 |
| N=C(N)c1ccc2cc(C(=O)Nc3ccc(Cl)cc3)n(Cc3ccc(C(N)=O)cc3)c2c1 [Compound I-84] | 0 to 25 |
| COc1ccc(NC(=O)c2cc3ccc(C(=N)N)cc3n2Cc2ccc(C(N)=O)cc2)cc1OC [Compound I-69] | 0 to 25 |
| N=C(N)c1ccc2c(N)c(C(=O)N[C@H]3CC[C@H](N)CC3)n(CCS(=O)(=O)c3ccccc3)c2c1 [Compound I-56, 3-Amino-N-((1r,4r)-4-aminocyclohexyl)-6-carbamimidoyl-1-(2-(phenylsulfonyl)ethyl)-1H-indole-2-carboxamide] | 25 to 50 |
| N=C(N)c1ccc2cc(C(=O)Nc3ccc(N4CC[C@H](F)C4)cc3)n(Cc3ccc(C(N)=O)cc3)c2c1 [Compound I-105] | 25 to 50 |
| N=C(N)c1ccc2c(N)c(C(=O)N[C@H]3CC[C@H](N)CC3)n(CCc3ccc(C(F)(F)F)cc3)c2c1 [Compound I-33, 3-Amino-N-((1r,4r)-4-aminocyclohexyl)-6-carbamimidoyl-1-(4-(trifluoromethyl)-phenethyl)-1H-indole-2-carboxamide] | 0 to 25 |
| N=C(N)c1ccc2cc(C(=O)Nc3ccc(F)cc3)n(CCS(=O)(=O)c3ccccc3)c2c1 [Compound I-42] | 0 to 25 |
| CC(C)OC(=O)NC(=N)c1ccc2cc(C(=O)Nc3cccc(N4CCCC4)c3)n(Cc3ccc(C(N)=O)cc3)c2c1 [Compound I-142] | 25 to 50 |
| N=C(N)c1ccc2cc(C(=O)N[C@H]3CC[C@H](N)CC3)n(CCc3cccc(Br)c3)c2c1 [Compound I-31] | 25 to 50 |
| N=C(N)c1ccc2cc(C(=O)Nc3cccc(-c4ccccn4)c3)n(Cc3ccc(C(N)=O)cc3)c2c1 [Compound I-134] | 0 to 25 |
| N=C(N)c1ccc2cc(C(=O)NC3CCN(CCCN)CC3)n(Cc3ccc(C(F)(F)F)cc3)c2c1 [Compound I-6, N-(1-(3-Aminopropyl)piperidin-4-yl)-6-carbamimidoyl-1-(4-(trifluoromethyl)benzyl)-1H indole-2-carboxamide] | 25 to 50 |
| C[C@H](NC(=O)OC(C)(C)C)C(=O)O/N=C(\N)c1ccc2cc(C(=O)Nc3cccc(N4CCCC4)c3)n(Cc3ccc(C(N)=O)cc3)c2c1 [Compound I-158, (S)-tert-butyl (1-(((amino(1-(4-carbamoylbenzyl)-2-((3-(pyrrolidin-1-yl)phenyl)carbamoyl)-1H-indol-6-yl)methylene)amino)oxy)-1-oxopropan-2-yl)carbamate] | 0 to 25 |
| N=C(N)c1ccc2cc(C(=O)NCc3ccc(N4CCCC4)cc3)n(Cc3ccc(C(N)=O)cc3)c2c1 [Compound I-112] | 25 to 50 |
| NC(=O)c1ccc(Cn2c(C(=O)Nc3cccc(N4CCCC4)c3)cc3ccc(C(N)=O)cc32)cc1 [Compound I-117, 1-(4-Carbamoylbenzyl)-N^2-(3-(pyrrolidin-1-yl)phenyl)-1H-indole-2,6-dicarboxamide] | 0 to 25 |
| CN(C)CC(=O)O/N=C(\N)c1ccc2cc(C(=O)Nc3cccc(N4CCCC4)c3)n(Cc3ccc(C(N)=O)cc3)c2c1 [Compound I-135, 1-(4-Carbamoylbenzyl)-6-(N′-(2-(dimethylamino)acetoxy)carbamimidoyl)-N-(3-(pyrrolidin-1-yl)phenyl)-1H-indole-2-carboxamide] | 0 to 25 |
| N=C(N)c1ccc2cc(C(=O)Nc3cccc(N4CC[C@H](O)C4)c3)n(Cc3ccc(C(N)=O)cc3)c2c1 [Compound I-128] | 0 to 25 |
| N=C(N)c1ccc2cc(C(=O)Nc3cccc(-c4ncc[nH]4)c3)n(Cc3ccc(C(N)=O)cc3)c2c1 [Compound I-137] | 25 to 50 |
| N=C(N)c1ccc2cc(C(=O)Nc3ccc(Oc4ccccc4)cc3)n(Cc3ccc(C(N)=O)cc3)c2c1 [Compound I-65] | 0 to 25 |

Same assay, conditions: at 1 uM; Assay Used = A; read-out: Mar-2 % inhibition at 1 uM

| Structure (SMILES) | inhibition at 1 µM [%] |
| --- | --- |
| N=C(N)c1ccc2cc(C(=O)N3CCC(C(=O)NCCCN)CC3)n(CCc3ccccc3)c2c1 [Compound I-358] | 25 to 50 |
| N=C(N)c1ccc2cc(C(=O)N3CCC(F)CC3)n(CCS(=O)(=O)c3ccccc3)c2c1 [Compound I-343] | 0 to 25 |
| N=C(N)NCCCNC(=O)C1CCN(C(=O)c2cc3ccc(C(=N)N)cc3n2Cc2ccc(C(F)(F)F)cc2)CC1 [Compound I-359, 1-(6-Carbamimidoyl-1-(4-(trifluoromethyl)benzyl)-1H-indole-2-carbonyl)-N-(3-guanidinopropyl)-piperidine-4-carboxamide] | 25 to 50 |
| N=C(N)c1ccc2c(Cl)c(C(=O)N3CCC(F)CC3)n(Cc3ccc(-c4ccccc4)cc3)c2c1 [Compound I-353, 1-([1,1′-Biphenyl]-4-ylmethyl)-3-chloro-2-(4-fluoropiperidine-1-carbonyl)-1H-indole-6-carboximidamide] | 0 to 25 |
| N=C(N)c1ccc2cc(C(=O)NC34CC5CC(CC(C5)C3)C4)n(Cc3ccc(Oc4ccc(F)cc4)cc3)c2c1 [Compound I-245] | 25 to 50 |
| NC(=O)c1ccc(Cn2c(C(=O)Nc3cccc(N4CCCC4)c3)cc3ccc(/C(N)=N/O)cc32)cc1 [Compound I-267, 1-(4-Carbamoylbenzyl)-6-(N′-hydroxycarbamimidoyl)-N-(3-(pyrrolidin-1-yl)phenyl)-1H-indole-2-carboxamide] | 0 to 25 |
| CN(C)C(=O)c1ccc(Cn2c(C(=O)N3CCC(F)CC3)cc3ccc(C(=N)N)cc32)cc1 [Compound I-389] | 0 to 25 |
| N=C(N)c1ccc2cc(C(=O)NC34CC5CC(CC(O)(C5)C3)C4)n(Cc3ccc(C(N)=O)cc3)c2c1 [Compound I-197] | 0 to 25 |
| N=C(N)c1ccc2cc(C(=O)N3CCC(F)(F)C3)n(Cc3ccc(C(N)=O)cc3)c2c1 [Compound I-331] | 0 to 25 |
| CCNC(=O)c1ccc(Cn2c(C(=O)N3CCC(F)CC3)cc3ccc(C(=N)N)cc32)cc1 [Compound I-390] | 0 to 25 |
| N=C(N)c1ccc2cc(C(=O)N3CCC(CCN)CC3)n(CCC(N)=O)c2c1 [Compound I-276] | 25 to 50 |
| NCCC(=O)Nc1ccc(Cn2c(C(=O)N3CCC(CCN)CC3)cc3ccc(/C(N)=N/O)cc32)cc1 [Compound I-383] | 0 to 25 |
| CC1CCN(C(=O)c2cc3ccc(C(=N)N)cc3n2CCS(=O)(=O)c2ccccc2)CC1 [Compound I-340] | 0 to 25 |
| N=C(N)c1ccc2cc(C(=O)N3CCC(F)CC3)n(Cc3ccc(C(N)=O)cc3)c2c1 [Compound I-326] | 0 to 25 |
| N=C(N)c1ccc2cc(C(=O)N3CCC(CCN)CC3)n(Cc3ccc(Oc4cccc(C(F)(F)F)c4)cc3)c2c1 [Compound I-319] | 25 to 50 |

Source: US12428415B2, “Matriptase 2 inhibitors and uses thereof” (Disc Medicine, Inc., priority 2018, dated 2025)
